Data on one compound can be found in patent US8933122B2, “Use of cationic surfactants as sporicidal agents” (Laboratorios Miret, S.A., priority 2008, dated 2015).

The test system of data set [1] is endospores from Thermoanaerobacterium thermosaccharolyticum ATCC 7956. Briefly: Sporicidal activity, quantitative suspension test EN 13704:2002 (Example 4). Particulars: 20° C.; for calculated reduction R=N×0.1/Na: 60 minutes; for Test of LAE sporicidal activity (Na), surviving spores count: water as interfering substance, N 0.65 × 10^6 cfu/mL. It is filed as cell-based. The procedure: The determination of the sporicidal activity of LAE has been carried out according to the European standard EN 13704:2002: “Chemical disinfectant—Quantitative suspension test for the evaluation of sporicidal activity of chemical disinfectants used in food, industrial, domestic and institutional areas—Test method and requirements”.
A test suspension containing endospores from Thermoanaerobacterium thermosaccharolyticum ATCC 7956 was prepared from a culture grown on a nutrient agar, to which additional sporulation enhancement ingredients were added. Plates were harvested with sterile water and endospores were purified by repeated centrifugations and resuspensions in water.
Neutralizer. The neutralizer mixture consisted of 30 g/L polysorbate 80 in water. The solution was intended to neutralize any chemicals so that these would not affect subsequent growth of the bacteria.
The sporicidal activity of a given product is defined by its capacity to reduce at least by 10^3 the amount of Thermoanaerobacterium thermosaccharolyticum bacterial spores in suspension, in the conditions established in the method.
The product was in contact with a suspension of bacterial spores during an established period of time of 60 minutes. An interfering substance can be added to the suspension, in this case water. Next, the effect of the product is neutralized by adding a neutralizer previously chosen, preceding to the surviving spores count.
• 1. Spore suspension obtained from a spored-form culture of Thermoanaerobacterium thermosaccharolyticum. • 2. Count of the spore suspension of Thermoanaerobacterium thermosaccharolyticum. • 3. The possible toxic effect of the neutralizer on the spores in the absence of the product is valued. • 4. Validation of the dilution-neutralisation method. • 5. Evaluation of the inhibitory sporicide effect of the product. • 6. Result calculation. Results: Results are expressed as the reduction of viability of the spore suspension in regards to:
Tabulation of the Method and Test Validation Results (at 20° C.):
A product is considered sporicidal if its use results in a reduction (R) in the number of Thermoanaerobacterium thermosaccharolyticum bacterial spores equal to or above 10^3 after being in contact for 60 minutes in the conditions set in EN 13704:2002.

The subject of data set [2] is Arthrobacter oxydans ATCC 8010. Particulars: Gram + Bacteria; cited from earlier work.
Data set [3] deals with Staphylococcus aureus ATCC 6538. Conditions: Gram + Bacteria; cited from earlier work.
Data set [4] relates to Micrococcus luteus ATCC 9631. Particulars: Gram + Bacteria; cited from earlier work.
Data set [5] deals with Bordetella bronchiseptica ATCC 4617. Particulars: Gram − Bacteria; cited from earlier work.
Data set [6] has as its system Citrobacter freundii ATCC 22636. Particulars: Gram − Bacteria; cited from earlier work.
Data set [7] concerns Escherichia coli ATCC 8739. Particulars: Gram − Bacteria; cited from earlier work.
The subject of data set [8] is Proteus mirabilis CECT 170. Conditions: Gram − Bacteria; cited from earlier work.
For data set [9], the system named is Mycobacterium phlei ATCC 41423. Conditions: listed under Gram − Bacteria; cited from earlier work.
Data set [10] concerns Chaetonium globosum ATCC 6205. Conditions: Fungi; cited from earlier work.
For data set [11], the system named is Rhodotorula rubra CECT 1158. Conditions: Yeast; cited from earlier work.
For data set [12] the following is noted: animals and humans; cited from earlier work.

Where only a bound is given, the exact number is not on record here.

For `CCCCCCCCCCCC(=O)N[C@@H](CCCN=C(N)N)C(=O)OCC.Cl` [LAE, ethyl ester of the lauramide of the arginine monohydrochloride], the “calculated reduction R=N×0.1/Na” value is listed as < 10^3 cfu/mL in [1] (32 μg/mL of LAE), < 10^3 cfu/mL in data set [1] (51 μg/mL of LAE), > 10^3 cfu/mL in [1] (102 μg/mL of LAE) and > 10^3 cfu/mL in data set [1] (205 μg/mL of LAE). Besides, in data set [1] (60 minutes contact, EN 13704:2002), the “concentration displaying sporicidal activity (reduction equal to or above 10^3)” value is on record as not below 102 μg/mL. Further, the “Test of LAE sporicidal activity (Na), surviving spores count” value in [1] (LAE 32 μg/mL, 60 minutes contact) is listed as 2.7 × 10^3 cfu/mL; in data set [1] (LAE 51 μg/mL, 60 minutes contact), 1.6 × 10^3 cfu/mL; in data set [1] (LAE 102 μg/mL, 60 minutes contact), <10^2 cfu/mL; in data set [1] (LAE 205 μg/mL, 60 minutes contact), <10^2 cfu/mL. In addition, the M.I.C. is 64 ppm in data set [2]; 32 ppm in data set [3]; 128 ppm in data set [4]; 128 ppm in data set [5]; 64 ppm in data set [6]; 32 ppm in [7]. For the same compound, the M.I.C. in data set [8] is reported as 32 ppm; in [9] it was 2 ppm; in data set [10], 16 ppm; in data set [11], 16 ppm. Besides, in data set [12], the toxicological finding result was “completely harmless to animals and humans”.
